Values joined by “and” are separate entries in the source; they are usually repeats but may differ in a detail not shown here. Identical values can stand only once.
What was measured:
[1] = Toxicity study in rats, peroral (Example 21); type: in vivo
Method: Study in rats. To 4 rats was administered one dose of 1000 mg per kg body weight perorally.

P. yoelii strain YM = P. yoelii strain YM infection in mice, parasitemia and mortality (Example 16); type: in vivo, BALB/c mice; settings: for % parasitemia, Mean: orally 100 mg/kg/dose 3 and 24 h after infection
[2] = D + 2, 10 mg per kg twice daily days +1 to +4
[3] = D + 3, 10 mg per kg twice daily days +1 to +4
[4] = D + 4, 10 mg per kg twice daily days +1 to +4
[5] = D + 5, 10 mg per kg twice daily days +1 to +4
[6] = D + 6, 10 mg per kg twice daily days +1 to +4
[7] = D + 7, 10 mg per kg twice daily days +1 to +4
[8] = D + 8, 10 mg per kg twice daily days +1 to +4
[9] = D + 9, 10 mg per kg twice daily days +1 to +4
[10] = D + 11, 10 mg per kg twice daily days +1 to +4
[11] = D + 12, 10 mg per kg twice daily days +1 to +4

## C=CC(C)(C)c1cc(/C=C/C(=O)c2ccc(O)cc2)c(OC)cc1O [Licochalcone A, licochalcone A]
[1]; 4 rats, one dose of 1000 mg per kg perorally
  deaths within one week: None of the animals died
[1]; rats
  LD50 peroral: > 1000 mg per kg
P. yoelii strain YM; [2]
  Parasitemia, mean: 0.1%
  Parasitemia, single mice: 0.1% and 0.01%
P. yoelii strain YM; [3]
  Parasitemia, mean: 0.2%
  Parasitemia, single mice: 0.00% and 0.5% and 0.01%
P. yoelii strain YM; [4]
  Parasitemia, mean: 0.4%
  Parasitemia, single mice: 0.00% and 1.2%
P. yoelii strain YM; D + 4, 10 mg/kg/day in 2 injections, days +1 to +6, 10 mg/kg/day
  Parasitemia, single mice: 1.5% and 4.0%
P. yoelii strain YM; D + 4, 20 mg/kg/day in 2 injections, days +1 to +6, 20 mg/kg/day
  Parasitemia, single mice: 0.01% and 0.0%
P. yoelii strain YM; D + 4, 40 mg/kg/day in 2 injections, days +1 to +6, 40 mg/kg/day
  Parasitemia, single mice: 0.1% and 0.5%
P. yoelii strain YM; D + 4, i.p. 5 mg/kg/day twice daily, 3 h after infection and D + 1 to D + 3
  % parasitemia (mean ± SEM): 1.6 ± 0.6%
P. yoelii strain YM; D + 4, i.p. 10 mg/kg four times daily D + 4 to D + 7
  % parasitemia (mean ± SEM): 14.2 ± 3.8%
P. yoelii strain YM; D + 4, i.p. 10 mg/kg twice daily D-1, D0
  % parasitemia (mean ± SEM): 1.2 ± 1.1%
P. yoelii strain YM; D + 4, i.p. 10 mg/kg/day twice daily, 3 h after infection and D + 1 to D + 3
  % parasitemia (mean ± SEM): 1.1 ± 1.0%
P. yoelii strain YM; D + 4, i.p. 15 mg/kg/day twice daily, 3 h after infection and D + 1 to D + 3
  % parasitemia (mean ± SEM): 2.0 ± 2.0%
P. yoelii strain YM; D + 4
  % parasitemia, Mean: 1.0%
P. yoelii strain YM; [5]
  Parasitemia, mean: 0.7%
  Parasitemia, single mice: 0.1% and 1.5% and 0.00%
P. yoelii strain YM; D + 5, 10 mg/kg/day in 2 injections, days +1 to +6, 10 mg/kg/day
  Parasitemia, single mice: 1.5% and 3.0%
P. yoelii strain YM; D + 5, 20 mg/kg/day in 2 injections, days +1 to +6
  Parasitemia, single mice: 0.0%
P. yoelii strain YM; D + 5, 40 mg/kg/day in 2 injections, days +1 to +6, 40 mg/kg/day
  Parasitemia, single mice: 0.5% and 1.0%
P. yoelii strain YM; [6]
  Parasitemia, mean: 2.2%
  Parasitemia, single mice: 1.0% and 4.0% and 1.5%
P. yoelii strain YM; D + 6, 10 mg/kg/day in 2 injections, days +1 to +6, 10 mg/kg/day
  Parasitemia, single mice: 2.0% and 2.5%
P. yoelii strain YM; D + 6, 10 mg/kg/day twice daily, 3 h after infection, D + 1 to D + 5
  % parasitemia (mean ± SEM): 0.1 ± 0.1%
P. yoelii strain YM; D + 6, 15 mg/kg/day twice daily, 3 h after infection, D + 1 to D + 5
  % parasitemia (mean ± SEM): 0%
P. yoelii strain YM; D + 6, 20 mg/kg/day in 2 injections, days +1 to +6
  Parasitemia, single mice: 0.0%
P. yoelii strain YM; D + 6, 40 mg/kg/day in 2 injections, days +1 to +6, 40 mg/kg/day
  Parasitemia, single mice: 1.0% and 1.5%
P. yoelii strain YM; D + 6, i.p. 5 mg/kg/day twice daily, 3 h after infection and D + 1 to D + 3
  % parasitemia (mean ± SEM): 13.8 ± 4.4%
P. yoelii strain YM; D + 6, i.p. 10 mg/kg four times daily D + 4 to D + 7
  % parasitemia (mean ± SEM): 6.6 ± 1.5%
P. yoelii strain YM; D + 6, i.p. 10 mg/kg twice daily D-1, D0
  % parasitemia (mean ± SEM): 9.7 ± 0.7%
P. yoelii strain YM; D + 6, i.p. 10 mg/kg/day twice daily, 3 h after infection and D + 1 to D + 3
  % parasitemia (mean ± SEM): 14.2 ± 4.6%
P. yoelii strain YM; D + 6, i.p. 15 mg/kg/day twice daily, 3 h after infection and D + 1 to D + 3
  % parasitemia (mean ± SEM): 10.4 ± 7.4%
P. yoelii strain YM; [7]
  Parasitemia, mean: 3.0%
  Parasitemia, single mice: 2.0% and 4.0% and 3.0%
P. yoelii strain YM; D + 7, 10 mg/kg/day in 2 injections, days +1 to +6, 10 mg/kg/day
  Parasitemia, single mice: 8.0% and 10.0%
P. yoelii strain YM; D + 7, 20 mg/kg/day in 2 injections, days +1 to +6, 20 mg/kg/day
  Parasitemia, single mice: 0.01% and 0.05%
P. yoelii strain YM; D + 7, 40 mg/kg/day in 2 injections, days +1 to +6, 40 mg/kg/day
  Parasitemia, single mice: 4.5% and 5.8%
P. yoelii strain YM; D + 7
  % parasitemia, Mean: 9.7%
P. yoelii strain YM; [8]
  Parasitemia, mean: 6.7%
  Parasitemia, single mice: 4.0% and 8.0%
P. yoelii strain YM; D + 8, 10 mg/kg/day in 2 injections, days +1 to +6, 10 mg/kg/day
  Parasitemia, single mice: 18.0% and 20.0%
P. yoelii strain YM; D + 8, 10 mg/kg/day twice daily, 3 h after infection, D + 1 to D + 5
  % parasitemia (mean ± SEM): 0.7 ± 0.4%
P. yoelii strain YM; D + 8, 15 mg/kg/day twice daily, 3 h after infection, D + 1 to D + 5
  % parasitemia (mean ± SEM): 0%
P. yoelii strain YM; D + 8, 20 mg/kg/day in 2 injections, days +1 to +6, 20 mg/kg/day
  Parasitemia, single mice: 1.0% and 1.5%
P. yoelii strain YM; D + 8, 40 mg/kg/day in 2 injections, days +1 to +6, 40 mg/kg/day
  Parasitemia, single mice: 12.0% and 15.0%
P. yoelii strain YM; D + 8, i.p. 5 mg/kg/day twice daily, 3 h after infection and D + 1 to D + 3
  % parasitemia (mean ± SEM): 36.6 ± 5.7%
P. yoelii strain YM; D + 8, i.p. 10 mg/kg four times daily D + 4 to D + 7
  % parasitemia (mean ± SEM): 17 ± 6.2%
P. yoelii strain YM; D + 8, i.p. 10 mg/kg twice daily D-1, D0
  % parasitemia (mean ± SEM): 27.8 ± 16.1%
P. yoelii strain YM; D + 8, i.p. 10 mg/kg/day twice daily, 3 h after infection and D + 1 to D + 3
  % parasitemia (mean ± SEM): 30.2 ± 6.4%
P. yoelii strain YM; D + 8, i.p. 15 mg/kg/day twice daily, 3 h after infection and D + 1 to D + 3
  % parasitemia (mean ± SEM): 22 ± 11.6%
P. yoelii strain YM; [9]
  Parasitemia, mean: 23.0%
  Parasitemia, single mice: 20.0% and 18.0% and 31.0%
P. yoelii strain YM; D + 10, 10 mg per kg twice daily days +1 to +4
  Parasitemia, mean: 25.5%
P. yoelii strain YM; D + 10, 10 mg/kg/day in 2 injections, days +1 to +6, 10 mg/kg/day
  Parasitemia, single mice: 39.0% and 42.0%
P. yoelii strain YM; D + 10, 10 mg/kg/day twice daily, 3 h after infection, D + 1 to D + 5
  % parasitemia (mean ± SEM): 6.0 ± 3.8%
P. yoelii strain YM; D + 10, 15 mg/kg/day twice daily, 3 h after infection, D + 1 to D + 5
  % parasitemia (mean ± SEM): 0%
P. yoelii strain YM; D + 10, 20 mg/kg/day in 2 injections, days +1 to +6, 20 mg/kg/day
  Parasitemia, single mice: 5.0% and 8.0%
P. yoelii strain YM; D + 10, 40 mg/kg/day in 2 injections, days +1 to +6, 40 mg/kg/day
  Parasitemia, single mice: 32.0% and 38.0%
P. yoelii strain YM; D + 10, i.p. 5 mg/kg/day twice daily to D + 3
  mortality (no. of dead mice/total no. of tested mice): (2/5)
P. yoelii strain YM; D + 10, i.p. 5 mg/kg/day twice daily, 3 h after infection and D + 1 to D + 3
  % parasitemia (mean ± SEM): 64 ± 5.0%
P. yoelii strain YM; D + 10, i.p. 10 mg/kg four times daily D + 4 to D + 7
  % parasitemia (mean ± SEM): 27.6 ± 12.1%
P. yoelii strain YM; D + 10, i.p. 10 mg/kg twice daily D-1, D0
  % parasitemia (mean ± SEM): 47.4 ± 27.7%
P. yoelii strain YM; D + 10, i.p. 10 mg/kg/day twice daily to D + 3
  mortality (no. of dead mice/total no. of tested mice): (1/5)
P. yoelii strain YM; D + 10, i.p. 10 mg/kg/day twice daily, 3 h after infection and D + 1 to D + 3
  % parasitemia (mean ± SEM): 48 ± 5.4%
P. yoelii strain YM; D + 10, i.p. 15 mg/kg/day twice daily to D + 3
  mortality (no. of dead mice/total no. of tested mice): (1/5)
P. yoelii strain YM; D + 10, i.p. 15 mg/kg/day twice daily, 3 h after infection and D + 1 to D + 3
  % parasitemia (mean ± SEM): 22 ± 11.6%
P. yoelii strain YM; D + 10
  % parasitemia, Mean: 43%
P. yoelii strain YM; [10]
  Parasitemia, mean: 37.0%
  Parasitemia, single mice: 33.0% and 41.0%
P. yoelii strain YM; D + 11, 40 mg/kg/day in 2 injections, days +1 to +6, 40 mg/kg/day
  Parasitemia, single mice: 51.0%
P. yoelii strain YM; [11]
  Parasitemia, mean: 74.0%
  Parasitemia, single mice: 80.0% and 68.0%
P. yoelii strain YM; D + 12, 10 mg/kg/day twice daily, 3 h after infection, D + 1 to D + 5
  % parasitemia (mean ± SEM): 14.4 ± 8.9%

From patent US6603046B1, “Bis-aromatic a,β-unsaturated ketones” (Lica Pharmaceuticals A/S, priority 1992, dated 2003)
